Key:
[1] = Pharmacokinetics after single i.v. administration to rats (plasma, UHPLC-MS/MS); type: in vivo, Wistar rats
Protocol: Male Wistar rats (230-310 g; n = 22) obtained from Velaz (Czech Republic) were kept in an air-conditioned room under a 12 h light-dark cycle, constant temperature and humidity and had free access to water and a standard laboratory pellet diet for rodents. All animal handling and procedures were approved and supervised by the Animal Welfare Body of the Faculty of Medicine in Hradec Kralove, Charles University in Prague. The investigation conformed to the Guide for the Care and Use of Laboratory Animals.
The rats were anaesthetized with pentobarbital (30 mg^.kg^−1; i.p.) and then the vena jugularis and arteria carotis were prepared for drug administration and blood sample collection, respectively. Both Dp44mT and DpC were dissolved in a mixture of saline, PEG 300 and ethanol (5:4:1, v/v/v) and administered to rats at a dose of 2 mg^.kg^−1, as a slow i.v. bolus. Blood was then collected into EDTA-containing tubes, immediately centrifuged and the plasma kept at −80°C until being analyzed. The blood withdrawn from animals was compensated with an appropriate volume of saline. The animals were sacrificed by pentobarbital overdose.
Initially, for both compounds, rats (n = 2, in each group) were used for the in-vivo investigation of the thiosemicarbazone metabolites and also the preparation of the quantitative analytical method. For the full PK study, 6 rats were used for each compound (group 1) and the blood was sampled at 4, 10, 30, 60, 120, 240 and 360 min post-administration.
Due to the markedly slower elimination of DpC, an additional in-vivo study was performed to appropriately describe the elimination phase of this drug. The conscious rats (n = 8, group 2) were administered DpC (2 mg^.kg^−1) via slow i.v. bolus to the vena saphena. Blood was sampled from the retro-orbital plexus under light ether anesthesia during the following time intervals: 120, 360, 600, 1440 and 1800 min. Plasma samples were treated and analyzed using the analytical methods described below in the Section: UHPLC-MS/MS methods for quantitative assay of the drugs and their metabolites.
Standard non-compartmental analysis was performed implementing Kinetica software (version 4.0, Thermo Fisher Scientific Inc., MA, U.S.A.). […] Maximum concentration (Cmax) and the time to maximum concentration (Tmax) were determined directly from the geometric mean vs. time profiles and from individual profiles. The area under the mean plasma concentration–time curve from zero up to the last sampling interval (AUC0-tlast) was calculated by a combination of the linear and log-linear trapezoidal methods. The area under the mean plasma concentration–time curve from zero up to infinity (AUC) was determined as the sum of the AUC0–tlast and of the extrapolated part (i.e., the ratio of the concentration predicted at the time interval of tlast and the terminal rate constant, λz). The λz was estimated by linear regression of the log transformed concentrations in the terminal part of the curve.
Population pharmacokinetic modeling was performed using non-linear, mixed effect modeling as implemented in Monolix, version 4 (http://wfn.software.monolix.org). Pharmacokinetic parameters were estimated by computing the maximum likelihood estimator of the parameters without any approximation of the model (no linearization). This was performed using the Stochastic Approximation Expectation Maximization (SAEM) algorithm combined with a Markov chain Monte Carlo procedure. The between-animal variability in model parameters were ascribed to an exponential model and a proportional model was used to describe the residual variability. The goodness-of-fit was assessed by using several diagnostic plots (observed and predicted concentrations vs. time; observed concentrations vs. population predictions; weighted residuals vs. time; and weighted residuals vs. predictions). Individual parameter values were obtained as empirical Bayes estimates. […]

[2] = Long-term stability in plasma samples at -80°C; type: in vitro ADME, rat; conditions: for Long-term stability: plasma, -80°C, 7 days
Protocol: (§1) The UHPLC-MS/MS methods for quantitative assays were validated with respect to selectivity, linearity, precision, accuracy, stability, recovery, matrix effects and dilution integrity (see […]
Linearity was examined over the concentration ranges described in Supplementary Table 1 using a weighted (1/x 2) linear regression in GraphPad Prism 6 (v. 6.04, GraphPad Software […]
(§2) Stability was assessed at low, medium and high concentration levels. Long -term stability was assessed for plasma samples at -80°C over a period of 7 days (three aliquots per level; Supplementary Table 3). […]

[3] = Post-preparative stability in the autosampler at 10°C; type: physicochemical; conditions: for Post-preparative stability: autosampler 10°C, 24 h
Protocol: as §1
Supplementary Table 1-3). […]
as §2

[4] = tested on: HL-60 human promyelocytic leukemia cell line; experiment: MTT proliferation/viability assay, HL-60; type: cell-based; conditions: 72 h/37°C, mean ± S.D.
Protocol: (§3) The MCF-7 human breast adenocarcinoma cell line was purchased from the European Collection of Cell Cultures (U.K.). The HL-60 human promyelocytic leukemia cell line, HCT116 human colorectal carcinoma cell line, H9c2 rat heart-derived myoblast cell line and 3T3 mouse embryo fibroblast line, were obtained from the American Type Culture Collection (VA, U.S.A.). Cells were cultured in Dulbecco's modified Eagle's medium (DMEM, Lonza, Switzerland) with or without (for MCF-7 cells only) phenol red, supplemented with 10% heat-inactivated fetal bovine serum (FBS; Lonza, Switzerland), 1% penicillin/streptomycin solution (Lonza, Switzerland) and 10 mM HEPES buffer (pH 7.0-7.6; Sigma-Aldrich, Germany). The HL-60 cell line was maintained in RPMI medium (Sigma-Aldrich, Germany) supplemented with 10% heat-inactivated FBS and 1% penicillin/streptomycin solution. All cell lines were cultured in 75 cm^2 tissue culture flasks (Switzerland) at 37°C in a humidified atmosphere of 5% CO2. Sub-confluent cells or, in the case of HL-60 cells, a cell suspension, were sub-cultured every 3-4 days.
(§4) Cells were seeded in 96-well plates for 24 h/37°C at a density of 5,000 (MCF-7), 10,000 (HL-60), 2,000 (HCT116) and 10,000 (3T3 and H9c2) cells/well. For 3T3 and H9c2 cells, the medium was changed to serum- and pyruvate-free DMEM 24 h prior to the experiments. Anti-proliferative and cytotoxicity effects of the compounds were studied at different concentrations after incubations for 72 h/37°C. Viabilities of cells were determined using MTT assays (Sigma-Aldrich, Germany) according to the manufacturer's instructions on a Tecan Infinite 200M plate reader (Tecan, Austria). The proliferation/viability of treated groups was expressed as a percentage of the untreated controls (100%).

[5] = tested on: MCF-7 human breast adenocarcinoma cell line; experiment: MTT proliferation/viability assay, MCF-7; type: cell-based; conditions: MCF7, 72 h/37°C, mean ± S.D.
Protocol: as §3, §4

[6] = tested on: HCT116 human colorectal carcinoma cell line; experiment: MTT proliferation/viability assay, HCT116; type: cell-based; conditions: HCT-116, 72 h/37°C, mean ± S.D.
Protocol: as §3, §4

[7] = tested on: H9c2 rat heart-derived myoblast cell line; experiment: MTT proliferation/viability assay, H9c2; type: cell-based; conditions: 72 h/37°C, mean ± S.D., serum- and pyruvate-free DMEM
Protocol: as §3, §4

[8] = tested on: 3T3 mouse embryo fibroblast line; experiment: MTT proliferation/viability assay, 3T3; type: cell-based; conditions: 72 h/37°C, mean ± S.D., serum- and pyruvate-free DMEM
Protocol: as §3, §4

[9] = tested on: cellular labile iron pools; experiment: Fluorimetric calcein-AM assay of intracellular iron chelation; type: cell-based; conditions: 10 μmol·L^−1
Protocol: (§5) Iron chelation efficiency of the compounds at a concentration of 10 μmol·L^−1 was determined via 3 methods: (1) the calcein assay; (2) the ability of the ligands to induce ^59Fe mobilization from cells prelabeled with ^59Fe-transferrin; and (3) the efficacy of these agents to inhibit the uptake of ^59Fe from ^59Fe-transferrin [22, 38–40].
(§6) The fluorimetric calcein-AM assay was performed by established methods, as described previously. The Fe chelation efficiency of the metabolites in cells was expressed as a percentage of that of the parent chelator, Dp44mT or DpC (100%). For studies assessing the ability of these agents to induce ^59Fe mobilization and inhibit ^59Fe uptake from ^59Fe-transferrin by cells, human transferrin (Sigma-Aldrich, Germany) was labeled with ^59Fe (PerkinElmer, MA, USA) to generate ^59Fe-transferrin at a final specific activity of 500 pCi/pmol Fe, as previously described. The unbound ^59Fe was removed by exhaustive vacuum dialysis against a large excess of 0.15 M NaCl buffered to pH 7.4 with 1.4% NaHCO3 by standard methods.

MCF-7 cells [10] = experiment: 59Fe mobilization from cells prelabeled with 59Fe-transferrin; type: cell-based, human; conditions: MCF-7 prelabeled with 59Fe-transferrin, compounds 25 μmol·L^−1, 3 h/37°C
Protocol: as §5, §6
(§7) To examine the ability of the studied substances to mobilize ^59Fe from MCF-7 cells or inhibit ^59Fe uptake from ^59Fe-transferrin, established techniques were utilized. For ^59Fe mobilization studies, cells were preincubated with ^59Fe-transferrin (0.75 μmol·L^−1) for 3 h/37°C, washed 4 times at 4°C on ice, and then reincubated with control medium or control medium containing the compounds (25 μmol·L^−1) for 3 h/37°C. The release of ^59Fe from the cells into the overlying medium was then examined by collecting both the cells and overlying medium and assessing ^59Fe levels using a γ-counter. For studies examining the ability of the agents to inhibit ^59Fe uptake from ^59Fe-transferrin, cells were incubated for 3 h/37°C with ^59Fe-transferrin (0.75 μmol·L^−1) in the presence or absence of the agents (25 μmol·L^−1), and then washed 4 times at 4°C on ice. The internalization of ^59Fe by cells was then assessed by incubation for 30 min/4°C with the general protease, Pronase (1 mg/mL), utilizing standard techniques. The amount of internalized ^59Fe in the presence of the agents was expressed as a percentage of ^59Fe internalized by control cells incubated in the presence of control media alone.

MCF-7 cells [11] = experiment: Inhibition of internalized 59Fe uptake from 59Fe-transferrin; type: cell-based, human; conditions: MCF-7, compounds 25 μmol·L^−1, 3 h/37°C
Protocol: as §5, §6, §7

[12] = high concentration level (2.105-3.115 µmol·L-1)
[13] = low concentration level (0.035-0.156 µmol·L-1)
[14] = medium concentration level (0.702-1.558 µmol·L-1)

| IC50 [4] | IC50 [5] | IC50 [6] | Structure (SMILES) | IC50 [7] | IC50 [8] | intracellular Fe chelation efficacy (in words) [9] | 59Fe mobilization (in words) (MCF-7 cells [10]) | inhibition of 59Fe uptake from 59Fe-transferrin (in words) (MCF-7 cells [11]) | also measured |
| --- | --- | --- | --- | --- | --- | --- | --- | --- | --- |
| – | – | – | CNC(=S)NN=C(c1ccccn1)c1ccccn1 [Dp4mT, di(2-pyridyl)ketone 4-methyl-3-thiosemicarbazone] | – | – | – | – | – | Cmax ([1]; male, Wistar, rat, plasma, iv, 2 mg/kg, rats, i.v. 2 mg·kg^−1, non-compartmental analysis of geometric mean plasma curves, Dp4mT = metabolite after Dp44mT dosing, read-out: Cmax): 0.496 µM; Tmax ([1]; male, Wistar, rat, plasma, iv, 2 mg/kg, rats, i.v. 2 mg·kg^−1, non-compartmental analysis, Dp4mT = metabolite after Dp44mT dosing, read-out: Tmax (converted)): 0.167 h; AUC(0-inf) ([1]; male, Wistar, rat, plasma, iv, 2 mg/kg, rats, i.v. 2 mg·kg^−1, non-compartmental analysis, read-out: AUC (zero to infinity)): 748 nM·h; half-life ([1]; male, Wistar, rat, plasma, iv, 2 mg/kg, rats, i.v. 2 mg·kg^−1, non-compartmental analysis, read-out: t1/2 (elimination half-life) (converted)): 2 h; AUC(0-t) ([1]; male, Wistar, rat, plasma, iv, 2 mg/kg, read-out: AUC0-tlast): 671 nM·h; lamdaz (terminal rate constant of elimination) ([1]; rats, i.v. 2 mg·kg^−1, non-compartmental analysis): 0.346 h⁻¹; Long-term stability [2, 12]: 90.82%; Long-term stability [2, 13]: 94.78%; Long-term stability [2, 14]: 90.83%; decomposition on storage (in words) ([2]; up to 7 days stored at −80°C): No significant decomposition; decomposition on storage (in words) ([3]; 24 h storage in the autosampler at 10°C): No significant decomposition; Post-preparative stability [3, 12]: 95.44%; Post-preparative stability [3, 13]: 100.24%; Post-preparative stability [3, 14]: 111.72% |
| 27.3 ± 3.56 µM | 29.4 ± 8.63 µM | 9.31 ± 1.58 µM | CN(C)C(=O)NN=C(c1ccccn1)c1ccccn1 [Dp44mS, di(2-pyridyl)ketone 4,4-dimethylsemicarbazone] | 367 ± 63.4 µM | 139 ± 28.9 µM | lower ability to bind intracellular Fe than their parent ligands | approximately half as effective as Dp44mT | – | internalized 59Fe uptake from 59Fe-transferrin, % of the control (MCF-7 cells [11]): 64% |
| 2.57 ± 0.33 µM | 3 ± 0.81 µM | 3.03 ± 0.91 µM | CN(C(=O)NN=C(c1ccccn1)c1ccccn1)C1CCCCC1 [DpC-S, di(2-pyridyl)ketone 4-cyclohexyl-4-methylsemicarbazone] | 5.59 ± 0.82 µM | 12.8 ± 2.87 µM | lower ability to bind intracellular Fe than their parent ligands | comparable to DpC | marked and similar to DpC | – |
| > 1000 µM | > 1000 µM | > 1000 µM | O=C(c1ccccn1)c1ccccn1 [DpK, di(2-pyridyl)ketone] | > 1000 µM | > 1000 µM | lower ability to bind intracellular Fe than their parent ligands | no greater than the control | did not have any significant (p>0.05) effect | – |

Source: PMC4767442 (Oncotarget, 2015)
